Experimental data reported in patent US9682995B2, “Amino-substituted isothiazoles” (BAYER PHARMA AKTIENGESELLSCHAFT, priority 2013, dated 2017).

Tests used:
Experiment in all cases: Kinase Profiling (KINOMEscan)
Assay type in all cases: binding
[1] = target: 456 kinases (of these 395 non-mutant kinases) (Homo sapiens, UniProt P45984); conditions: JNK2; 10 μM
[2] = target: 456 kinases (of these 395 non-mutant kinases) (Homo sapiens, UniProt Q8IWQ3); conditions: BRSK2; 10 μM
[3] = target: 456 kinases (of these 395 non-mutant kinases) (Homo sapiens, UniProt Q9Y2U5); conditions: MAP3K2; 10 μM
[4] = target: 456 kinases (of these 395 non-mutant kinases) (Homo sapiens, UniProt Q13557); conditions: CAMK2D; 10 μM
Sequence of 456 kinases (of these 395 non-mutant kinases) (Homo sapiens, UniProt Q13557) (Q13557 2-499 limits assumed, change not shown): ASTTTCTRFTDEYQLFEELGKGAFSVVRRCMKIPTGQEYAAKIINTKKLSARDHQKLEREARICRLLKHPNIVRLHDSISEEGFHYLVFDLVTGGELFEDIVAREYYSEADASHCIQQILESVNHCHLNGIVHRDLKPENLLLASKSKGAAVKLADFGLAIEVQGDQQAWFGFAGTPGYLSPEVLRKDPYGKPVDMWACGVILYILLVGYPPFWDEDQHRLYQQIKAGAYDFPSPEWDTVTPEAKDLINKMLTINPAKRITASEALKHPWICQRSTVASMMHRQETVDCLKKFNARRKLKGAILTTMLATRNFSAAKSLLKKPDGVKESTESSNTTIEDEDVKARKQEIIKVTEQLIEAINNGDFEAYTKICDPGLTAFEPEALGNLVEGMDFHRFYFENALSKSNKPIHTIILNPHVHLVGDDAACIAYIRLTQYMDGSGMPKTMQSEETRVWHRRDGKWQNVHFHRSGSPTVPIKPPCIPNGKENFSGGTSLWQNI

[5] = target: 456 kinases (of these 395 non-mutant kinases) (Homo sapiens, UniProt Q9Y6M4); conditions: CSNK1G3; 10 μM
[6] = target: 456 kinases (of these 395 non-mutant kinases) (Homo sapiens, UniProt Q9BRS2); conditions: RIOK1; 10 μM
[7] = target: 456 kinases (of these 395 non-mutant kinases) (Homo sapiens, UniProt Q6ZWH5); conditions: NEK10; 10 μM
[8] = target: 456 kinases (of these 395 non-mutant kinases) (Homo sapiens, UniProt Q9Y6R4); conditions: MAP3K4; 10 μM
[9] = target: 456 kinases (of these 395 non-mutant kinases) (Homo sapiens, UniProt Q92772); conditions: CDKL2; 10 μM
[10] = target: 456 kinases (of these 395 non-mutant kinases) (Homo sapiens, UniProt O43283); conditions: LZK; 10 μM
[11] = target: 456 kinases (of these 395 non-mutant kinases) (Homo sapiens, UniProt Q06418); conditions: TYRO3; 10 μM
Sequence of 456 kinases (of these 395 non-mutant kinases) (Homo sapiens, UniProt Q06418) (Q06418 41-890 limits assumed, change not shown): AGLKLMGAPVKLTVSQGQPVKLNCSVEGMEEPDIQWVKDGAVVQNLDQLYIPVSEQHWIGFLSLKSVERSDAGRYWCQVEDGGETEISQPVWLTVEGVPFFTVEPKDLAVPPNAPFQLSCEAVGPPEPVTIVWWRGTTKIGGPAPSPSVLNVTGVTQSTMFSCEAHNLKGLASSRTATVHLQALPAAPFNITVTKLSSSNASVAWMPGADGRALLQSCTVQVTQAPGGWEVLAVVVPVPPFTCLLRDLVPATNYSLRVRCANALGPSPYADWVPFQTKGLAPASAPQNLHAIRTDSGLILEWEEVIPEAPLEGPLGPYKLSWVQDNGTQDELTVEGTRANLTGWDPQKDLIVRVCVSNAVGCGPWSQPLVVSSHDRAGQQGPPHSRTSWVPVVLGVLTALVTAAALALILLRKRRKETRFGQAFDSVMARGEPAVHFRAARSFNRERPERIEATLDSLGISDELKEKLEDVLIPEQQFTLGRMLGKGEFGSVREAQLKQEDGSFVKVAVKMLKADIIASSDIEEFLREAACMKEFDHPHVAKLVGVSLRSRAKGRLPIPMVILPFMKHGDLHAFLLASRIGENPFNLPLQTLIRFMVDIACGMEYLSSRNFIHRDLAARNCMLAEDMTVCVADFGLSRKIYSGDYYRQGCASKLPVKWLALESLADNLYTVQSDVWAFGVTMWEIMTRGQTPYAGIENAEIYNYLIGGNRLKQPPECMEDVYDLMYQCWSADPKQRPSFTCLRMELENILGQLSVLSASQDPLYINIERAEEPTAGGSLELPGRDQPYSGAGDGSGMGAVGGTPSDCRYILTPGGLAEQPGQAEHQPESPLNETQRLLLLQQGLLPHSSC

[12] = target: 456 kinases (of these 395 non-mutant kinases) (Homo sapiens, UniProt O43293); conditions: DAPK3; 10 μM
[13] = target: 456 kinases (of these 395 non-mutant kinases) (Homo sapiens, UniProt P49760); conditions: CLK2; 10 μM
[14] = target: 456 kinases (of these 395 non-mutant kinases) (Homo sapiens, UniProt P09769); conditions: FGR; 10 μM
Sequence of 456 kinases (of these 395 non-mutant kinases) (Homo sapiens, UniProt P09769) (P09769 2-529 limits assumed, change not shown): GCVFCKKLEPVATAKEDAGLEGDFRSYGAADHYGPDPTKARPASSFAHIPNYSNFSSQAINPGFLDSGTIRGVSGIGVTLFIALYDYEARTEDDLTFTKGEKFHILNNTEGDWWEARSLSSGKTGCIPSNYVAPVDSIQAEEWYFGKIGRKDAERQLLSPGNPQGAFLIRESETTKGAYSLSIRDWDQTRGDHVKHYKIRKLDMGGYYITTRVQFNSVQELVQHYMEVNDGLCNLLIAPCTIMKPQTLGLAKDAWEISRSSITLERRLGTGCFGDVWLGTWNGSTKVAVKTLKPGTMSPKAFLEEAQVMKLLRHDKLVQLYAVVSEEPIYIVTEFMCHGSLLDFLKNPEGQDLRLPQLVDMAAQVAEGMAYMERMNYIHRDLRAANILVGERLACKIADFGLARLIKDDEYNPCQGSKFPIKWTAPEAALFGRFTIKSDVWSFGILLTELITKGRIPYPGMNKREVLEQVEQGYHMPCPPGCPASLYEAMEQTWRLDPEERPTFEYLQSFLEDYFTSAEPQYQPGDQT

[15] = target: 456 kinases (of these 395 non-mutant kinases) (Homo sapiens, UniProt Q8TD19); conditions: NEK9; 10 μM
[16] = target: 456 kinases (of these 395 non-mutant kinases) (Homo sapiens, UniProt Q9H1R3); conditions: MYLK2; 10 μM
Sequence of 456 kinases (of these 395 non-mutant kinases) (Homo sapiens, UniProt Q9H1R3) (Q9H1R3 2-596 limits assumed, change not shown): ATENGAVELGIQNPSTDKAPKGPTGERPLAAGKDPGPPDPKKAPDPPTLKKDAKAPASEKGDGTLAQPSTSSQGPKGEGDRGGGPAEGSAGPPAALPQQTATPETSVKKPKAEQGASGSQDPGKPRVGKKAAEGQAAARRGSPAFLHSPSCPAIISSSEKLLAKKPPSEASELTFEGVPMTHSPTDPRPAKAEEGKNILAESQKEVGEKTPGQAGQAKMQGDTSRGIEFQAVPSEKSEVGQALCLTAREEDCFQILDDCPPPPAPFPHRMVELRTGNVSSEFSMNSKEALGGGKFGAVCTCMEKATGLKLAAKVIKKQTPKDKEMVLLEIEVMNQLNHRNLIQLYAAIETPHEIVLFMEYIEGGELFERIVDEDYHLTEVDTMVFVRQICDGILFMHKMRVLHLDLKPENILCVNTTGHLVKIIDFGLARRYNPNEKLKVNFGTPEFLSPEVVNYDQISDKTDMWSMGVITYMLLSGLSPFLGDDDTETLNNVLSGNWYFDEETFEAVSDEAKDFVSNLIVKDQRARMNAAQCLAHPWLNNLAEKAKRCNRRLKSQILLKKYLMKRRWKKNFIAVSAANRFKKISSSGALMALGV

[17] = target: 456 kinases (of these 395 non-mutant kinases) (Homo sapiens, UniProt Q9BVS4); conditions: RIOK2; 10 μM
[18] = target: 456 kinases (of these 395 non-mutant kinases) (Homo sapiens, UniProt Q8N568); conditions: DCAMKL2; 10 μM
[19] = target: 456 kinases (of these 395 non-mutant kinases) (Homo sapiens, UniProt P51957); conditions: NEK4; 10 μM
[20] = target: 456 kinases (of these 395 non-mutant kinases) (Homo sapiens, UniProt P41743); conditions: PRKCI; 10 μM
Sequence of 456 kinases (of these 395 non-mutant kinases) (Homo sapiens, UniProt P41743) (P41743 2-596 limits assumed, change not shown): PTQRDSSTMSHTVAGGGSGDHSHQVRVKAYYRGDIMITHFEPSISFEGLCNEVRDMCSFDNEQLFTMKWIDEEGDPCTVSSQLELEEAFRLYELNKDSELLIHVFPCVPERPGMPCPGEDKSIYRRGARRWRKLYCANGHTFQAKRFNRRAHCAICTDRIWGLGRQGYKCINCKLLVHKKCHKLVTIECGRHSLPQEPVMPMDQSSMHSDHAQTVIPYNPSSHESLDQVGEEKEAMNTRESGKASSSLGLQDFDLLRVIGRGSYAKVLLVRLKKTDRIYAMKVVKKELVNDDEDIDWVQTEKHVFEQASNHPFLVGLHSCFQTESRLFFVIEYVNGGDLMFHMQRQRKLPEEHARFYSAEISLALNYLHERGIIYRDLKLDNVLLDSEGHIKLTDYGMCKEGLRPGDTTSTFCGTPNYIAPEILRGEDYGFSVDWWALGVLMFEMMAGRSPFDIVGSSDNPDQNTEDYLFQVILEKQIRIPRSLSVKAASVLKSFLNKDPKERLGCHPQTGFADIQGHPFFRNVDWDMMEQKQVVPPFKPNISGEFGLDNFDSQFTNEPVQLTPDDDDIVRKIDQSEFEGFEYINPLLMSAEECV

[21] = target: 456 kinases (of these 395 non-mutant kinases) (Homo sapiens, UniProt P06239); conditions: LCK; 10 μM
Sequence of 456 kinases (of these 395 non-mutant kinases) (Homo sapiens, UniProt P06239) (P06239 2-509 limits assumed, change not shown): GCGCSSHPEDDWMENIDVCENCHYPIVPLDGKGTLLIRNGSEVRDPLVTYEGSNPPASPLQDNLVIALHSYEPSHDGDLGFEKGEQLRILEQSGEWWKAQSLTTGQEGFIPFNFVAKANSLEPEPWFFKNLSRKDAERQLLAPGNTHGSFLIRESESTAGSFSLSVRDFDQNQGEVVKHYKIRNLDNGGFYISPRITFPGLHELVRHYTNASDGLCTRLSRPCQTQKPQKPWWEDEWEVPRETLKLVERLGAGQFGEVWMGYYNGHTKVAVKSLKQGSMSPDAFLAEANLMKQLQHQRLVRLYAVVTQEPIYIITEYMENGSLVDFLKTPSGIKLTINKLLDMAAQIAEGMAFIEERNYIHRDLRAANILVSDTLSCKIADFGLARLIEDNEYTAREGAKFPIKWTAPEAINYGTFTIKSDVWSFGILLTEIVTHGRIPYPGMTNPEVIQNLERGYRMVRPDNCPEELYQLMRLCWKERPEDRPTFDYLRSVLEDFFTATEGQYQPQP

[22] = target: 456 kinases (of these 395 non-mutant kinases) (Homo sapiens, UniProt Q9BX84); conditions: TRPM6; 10 μM
[23] = target: 456 kinases (of these 395 non-mutant kinases) (Homo sapiens, UniProt Q04912); conditions: MST1R; 10 μM
[24] = target: 456 kinases (of these 395 non-mutant kinases) (Homo sapiens, UniProt Q12866); conditions: MERTK; 10 μM
Sequence of 456 kinases (of these 395 non-mutant kinases) (Homo sapiens, UniProt Q12866) (Q12866 21-999 limits assumed, change not shown): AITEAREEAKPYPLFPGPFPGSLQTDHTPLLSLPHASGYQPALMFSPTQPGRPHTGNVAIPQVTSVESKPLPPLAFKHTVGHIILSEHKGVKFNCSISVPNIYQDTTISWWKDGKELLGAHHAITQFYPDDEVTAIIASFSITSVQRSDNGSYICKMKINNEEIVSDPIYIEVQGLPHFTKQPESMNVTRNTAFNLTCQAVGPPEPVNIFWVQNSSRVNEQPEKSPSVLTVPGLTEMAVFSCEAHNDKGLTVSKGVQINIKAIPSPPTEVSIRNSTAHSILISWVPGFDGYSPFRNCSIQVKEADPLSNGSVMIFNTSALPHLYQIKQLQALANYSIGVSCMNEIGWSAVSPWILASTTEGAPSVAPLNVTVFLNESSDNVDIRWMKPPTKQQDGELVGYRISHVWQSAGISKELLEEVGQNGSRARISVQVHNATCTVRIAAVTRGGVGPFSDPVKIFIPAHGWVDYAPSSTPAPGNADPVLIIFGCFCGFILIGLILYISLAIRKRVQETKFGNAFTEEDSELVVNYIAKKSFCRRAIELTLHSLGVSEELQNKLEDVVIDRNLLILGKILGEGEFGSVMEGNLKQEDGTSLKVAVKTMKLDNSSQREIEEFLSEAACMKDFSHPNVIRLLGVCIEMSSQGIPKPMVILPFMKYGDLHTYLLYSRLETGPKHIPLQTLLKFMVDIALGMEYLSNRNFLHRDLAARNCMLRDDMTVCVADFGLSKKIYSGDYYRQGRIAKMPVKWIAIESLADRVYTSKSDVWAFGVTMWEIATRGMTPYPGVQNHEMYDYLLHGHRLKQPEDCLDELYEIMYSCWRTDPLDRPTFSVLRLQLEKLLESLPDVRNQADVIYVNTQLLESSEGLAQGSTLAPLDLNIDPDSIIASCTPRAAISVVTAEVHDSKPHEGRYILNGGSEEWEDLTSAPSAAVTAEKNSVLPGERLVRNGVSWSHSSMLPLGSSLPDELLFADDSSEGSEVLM

[25] = target: 456 kinases (of these 395 non-mutant kinases) (Homo sapiens, UniProt Q8IVH8); conditions: MAP4K3; 10 μM
[26] = target: 456 kinases (of these 395 non-mutant kinases) (Homo sapiens, UniProt O14578); conditions: CIT; 10 μM
[27] = target: 456 kinases (of these 395 non-mutant kinases) (Homo sapiens, UniProt Q13233); conditions: MAP3K1; 10 μM
[28] = target: 456 kinases (of these 395 non-mutant kinases) (Homo sapiens, UniProt P00533, T790M); conditions: EGFR(T790M); 10 μM
[29] = target: 456 kinases (of these 395 non-mutant kinases) (Homo sapiens, UniProt P49840); conditions: GSK3A; 10 μM
Sequence of 456 kinases (of these 395 non-mutant kinases) (Homo sapiens, UniProt P49840) (P49840 2-483 limits assumed, change not shown): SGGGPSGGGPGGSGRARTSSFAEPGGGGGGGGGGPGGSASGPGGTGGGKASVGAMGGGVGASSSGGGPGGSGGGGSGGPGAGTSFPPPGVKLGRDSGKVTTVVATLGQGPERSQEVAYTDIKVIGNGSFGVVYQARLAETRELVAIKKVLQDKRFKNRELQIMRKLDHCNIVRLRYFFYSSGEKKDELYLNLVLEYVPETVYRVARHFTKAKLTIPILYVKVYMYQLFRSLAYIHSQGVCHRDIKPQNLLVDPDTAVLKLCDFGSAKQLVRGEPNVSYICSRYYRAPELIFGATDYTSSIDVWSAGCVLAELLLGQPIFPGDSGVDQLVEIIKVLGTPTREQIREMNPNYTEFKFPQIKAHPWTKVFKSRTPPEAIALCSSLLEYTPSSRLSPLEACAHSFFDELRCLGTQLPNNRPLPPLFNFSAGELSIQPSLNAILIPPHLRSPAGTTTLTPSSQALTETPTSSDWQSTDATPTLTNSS

[30] = target: 456 kinases (of these 395 non-mutant kinases) (Homo sapiens, UniProt Q02156); conditions: PRKCE; 10 μM
[31] = target: 456 kinases (of these 395 non-mutant kinases) (Homo sapiens, UniProt Q9P0L2); conditions: MARK1; 10 μM
[32] = target: 456 kinases (of these 395 non-mutant kinases) (Homo sapiens, UniProt P16591); conditions: FER; 10 μM
[33] = target: 456 kinases (of these 395 non-mutant kinases) (Homo sapiens, UniProt Q9BZL6); conditions: PRKD2; 10 μM

`CCc1ccccc1NC(=O)c1c(C)nsc1Nc1cnc2cc(F)ccc2n1` [Example 20, N-(2-Ethylphenyl)-5-[(6-fluoroquinoxalin-2-yl)amino]-3-methyl-1,2-thiazole-4-carboxamide] was tested, and the “% Ctrl @ 10 μM” value [1] was 100 % Ctrl, the “% Ctrl @ 10 μM” value [2] was 100 % Ctrl and the “% Ctrl @ 10 μM” value [3] was 100 % Ctrl. For the same molecule, the “% Ctrl @ 10 μM” value [4] was 89 % Ctrl, the “% Ctrl @ 10 μM” value [5] was 70 % Ctrl and the “% Ctrl @ 10 μM” value [6] was 100 % Ctrl. For the same molecule, the “% Ctrl @ 10 μM” value [7] was 84 % Ctrl, the “% Ctrl @ 10 μM” value [8] was 84 % Ctrl and the “% Ctrl @ 10 μM” value [9] was 100 % Ctrl. The “% Ctrl @ 10 μM” value [10] was 88 % Ctrl, the “% Ctrl @ 10 μM” value [11] was 56 % Ctrl and the “% Ctrl @ 10 μM” value [12] was 72 % Ctrl. For the same molecule, the “% Ctrl @ 10 μM” value [13] was 77 % Ctrl, the “% Ctrl @ 10 μM” value [14] was 80 % Ctrl and the “% Ctrl @ 10 μM” value [15] was 78 % Ctrl. For the same molecule, the “% Ctrl @ 10 μM” value [16] was 100 % Ctrl, the “% Ctrl @ 10 μM” value [17] was 77 % Ctrl and the “% Ctrl @ 10 μM” value [18] was 98 % Ctrl. The “% Ctrl @ 10 μM” value [19] was 99 % Ctrl, the “% Ctrl @ 10 μM” value [20] was 100 % Ctrl and the “% Ctrl @ 10 μM” value [21] was 94 % Ctrl. The “% Ctrl @ 10 μM” value [22] was 83 % Ctrl, the “% Ctrl @ 10 μM” value [23] was 100 % Ctrl and the “% Ctrl @ 10 μM” value [24] was 98 % Ctrl. The “% Ctrl @ 10 μM” value [25] was 83 % Ctrl, the “% Ctrl @ 10 μM” value [26] was 80 % Ctrl and the “% Ctrl @ 10 μM” value [27] was 84 % Ctrl. The “% Ctrl @ 10 μM” value [28] was 100 % Ctrl, the “% Ctrl @ 10 μM” value [29] was 68 % Ctrl and the “% Ctrl @ 10 μM” value [30] was 75 % Ctrl. For the same molecule, the “% Ctrl @ 10 μM” value [31] was 97 % Ctrl, the “% Ctrl @ 10 μM” value [32] was 100 % Ctrl and the “% Ctrl @ 10 μM” value [33] was 91 % Ctrl.
